Patent publication US5436229A, “Bisulfite adducts of arginine aldehydes” (Eli Lilly and Company, priority 1994, dated 1995)
Non-standard residues stand in square brackets, D forms with d. Residues, ends and D or L forms follow the SMILES beside them. dThz = O=C(O)[C@H]1CSCN1

Tests used:
human plasma [1] = test: Human plasma anticoagulation, thrombin time (TT); assay type: biochemical
Summary of the method: (§1)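 Compounds added across a wide concentration range to human plasma; APTT, PT and TT clotting times measured on a coagulation instrument, bovine thrombin used for plasma assays. Concentration doubling clotting time estimated by linear extrapolation.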

human plasma [2] = test: Human plasma anticoagulation, activated partial thromboplastin time (APTT); assay type: biochemical
Summary of the method: as §1

human thrombin = human thrombin (Homo sapiens, UniProt P00734); test: Thrombin amidase inhibition (Kass), chromogenic substrate; assay type: biochemical
Summary of the method: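 Purified human thrombin (8 NIH units/ml solution) mixed with compound in 50% aqueous methanol and 0.03M Tris, 0.15M NaCl, pH 7.4; chromogenic substrate (0.25 mg/ml solution) added, p-nitroaniline release followed at 405 nm. Free thrombin read from a standard curve; Kass (L/mol) is the mean over a range of compound concentrations.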

Bovine trypsin = molecular target: T1, Bovine trypsin (Bos taurus, UniProt P00760); test: Serine protease inhibition (Kass), trypsin; assay type: biochemical
T1 construct: Bovine trypsin is purchased from Worthington Biochemicals; purchased Worthington Biochemicals, Freehold, N.J
T1 sequence (P00760 24-246): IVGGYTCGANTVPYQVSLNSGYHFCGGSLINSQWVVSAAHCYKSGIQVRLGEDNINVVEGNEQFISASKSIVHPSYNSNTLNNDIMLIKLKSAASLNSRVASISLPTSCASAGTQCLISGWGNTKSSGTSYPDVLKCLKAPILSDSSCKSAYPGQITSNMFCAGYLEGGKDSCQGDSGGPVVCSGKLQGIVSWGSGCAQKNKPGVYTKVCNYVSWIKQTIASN
Summary of the method: (§2)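 Chromogenic p-nitroanilide substrate assays run as for human thrombin; trypsin with N-Benzoyl-Phe-Val-Arg-p-nitroanilide, human factor Xa with N-Benzoyl-Ile-Glu-Gly-Arg-p-nitroanilide. Values are association constants (Kass).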

[3] = molecular target: T2, tissue plasminogen activator (t-PA) (Homo sapiens, UniProt P00750); test: Serine protease inhibition (Kass), t-PA; assay type: biochemical
T2 construct: purchased American Diagnostica, Greenwich, Conn

human plasma [4] = test: Human plasma anticoagulation, prothrombin time (PT); assay type: biochemical
Summary of the method: as §1

factor Xa = molecular target: T3, factor Xa (Homo sapiens, UniProt P00742); test: Serine protease inhibition (Kass), factor Xa; assay type: biochemical
T3 construct: Human factors X, Xa, IXa, XIa, and XIIa are purchased from Enzyme Research Laboratories; purchased Enzyme Research Laboratories, South Bend, Ind
Summary of the method: as §2

Human plasmin = molecular target: T4, Human plasmin (Homo sapiens, UniProt P00747); test: Serine protease inhibition (Kass), plasmin; assay type: biochemical
T4 construct: Human plasmin is purchased from Boehringer Mannheim; purchased Boehringer Mannheim, Indianapolis, Ind
Summary of the method: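 Chromogenic enzyme assays run as for human thrombin, giving association constants (Kass). Human plasmin used with H-D-Val-Leu-Lys-p-nitroanilide; t-PA (single-chain nt-PA or modified mt-PA6) with H-D-Ile-Pro-Arg-p-nitroanilide.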

[5] = Index of Bioavailability (plasma TT AUC, oral vs i.v.); assay type: in vivo; conditions: rats, oral vs i.v. bolus
Excerpt: Assays are done in duplicate and averaged.
Each sample population represents alternating sequential time points.

T3 sequence (P00742 235-488 limits assumed): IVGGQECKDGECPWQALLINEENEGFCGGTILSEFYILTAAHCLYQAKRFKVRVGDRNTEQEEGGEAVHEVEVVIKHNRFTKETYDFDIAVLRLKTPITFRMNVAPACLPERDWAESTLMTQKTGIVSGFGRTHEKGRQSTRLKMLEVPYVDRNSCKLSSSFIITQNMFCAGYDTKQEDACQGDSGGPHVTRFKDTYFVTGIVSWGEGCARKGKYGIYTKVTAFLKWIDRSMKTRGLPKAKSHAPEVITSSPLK
T3 sequence (P00742 41-179 partner limits assumed): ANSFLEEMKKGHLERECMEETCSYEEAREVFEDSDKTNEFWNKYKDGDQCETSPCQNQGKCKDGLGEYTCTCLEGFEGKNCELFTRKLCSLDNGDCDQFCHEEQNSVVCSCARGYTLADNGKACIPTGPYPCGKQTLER
T2 sequence (P00750 36-562): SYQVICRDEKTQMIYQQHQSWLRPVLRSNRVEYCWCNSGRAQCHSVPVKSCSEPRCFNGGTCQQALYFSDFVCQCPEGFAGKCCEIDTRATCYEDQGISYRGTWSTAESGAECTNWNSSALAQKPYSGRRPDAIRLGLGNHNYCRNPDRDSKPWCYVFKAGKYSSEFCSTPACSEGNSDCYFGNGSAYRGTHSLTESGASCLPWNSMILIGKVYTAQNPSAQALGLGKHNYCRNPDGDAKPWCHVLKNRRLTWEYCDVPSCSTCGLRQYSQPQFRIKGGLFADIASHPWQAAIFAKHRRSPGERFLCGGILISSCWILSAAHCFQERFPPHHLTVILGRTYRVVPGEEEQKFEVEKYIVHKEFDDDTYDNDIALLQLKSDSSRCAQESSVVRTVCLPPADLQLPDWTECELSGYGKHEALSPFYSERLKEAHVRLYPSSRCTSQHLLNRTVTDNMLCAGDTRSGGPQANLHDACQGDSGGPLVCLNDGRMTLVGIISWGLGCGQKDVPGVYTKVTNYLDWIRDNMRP
T4 sequence (P00747 581-810 limits assumed): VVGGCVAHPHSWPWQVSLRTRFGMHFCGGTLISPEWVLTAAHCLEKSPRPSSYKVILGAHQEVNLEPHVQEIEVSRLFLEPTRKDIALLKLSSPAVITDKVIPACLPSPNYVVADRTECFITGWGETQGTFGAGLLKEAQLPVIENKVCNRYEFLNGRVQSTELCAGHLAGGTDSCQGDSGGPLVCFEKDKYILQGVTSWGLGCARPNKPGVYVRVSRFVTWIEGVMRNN
T4 sequence (P00747 97-580 partner limits assumed): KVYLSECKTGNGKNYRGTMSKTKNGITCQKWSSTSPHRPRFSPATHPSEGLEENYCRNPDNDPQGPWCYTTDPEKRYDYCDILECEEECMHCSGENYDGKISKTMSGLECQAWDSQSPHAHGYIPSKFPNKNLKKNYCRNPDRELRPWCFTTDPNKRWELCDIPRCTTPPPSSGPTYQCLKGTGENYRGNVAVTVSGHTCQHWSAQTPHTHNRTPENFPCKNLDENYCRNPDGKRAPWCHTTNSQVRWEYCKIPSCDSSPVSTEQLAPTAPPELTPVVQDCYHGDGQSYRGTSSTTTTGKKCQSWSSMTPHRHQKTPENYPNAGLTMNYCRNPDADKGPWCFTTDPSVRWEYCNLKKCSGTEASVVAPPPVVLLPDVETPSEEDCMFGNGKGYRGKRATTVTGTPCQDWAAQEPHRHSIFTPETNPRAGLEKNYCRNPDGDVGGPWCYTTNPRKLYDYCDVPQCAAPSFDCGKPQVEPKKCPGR

Kass Xa (factor Xa) | inhibition at 13 µg/mL ([3]; at 13 μg/mL, read-out: inhib. of t-PA) | Compound | 2 × Clotting time TT (human plasma [1]) | 2 × Clotting time APTT (human plasma [2]) | Kass Human Thrombin (human thrombin) | Kass Trypsin (Bovine trypsin) | Kass t-PA [3] | 2 × Clotting time PT (human plasma [4]) | Kass Plasmin (Human plasmin) | Percent Relative Activity (Index of Bioavailability) [5]
2.3 L/mol × 10^6 | – | CCOC(=O)N[C@H](Cc1ccccc1)C(=O)N1CCC[C@H]1C(=O)N[C@H](C=O)CCCNC(=N)N.Cl [Example 77, N-(ethoxycarbonyl)-D-phenylalanyl-L-Prolinyl-L-Arginine Aldehyde Hydrochloride] | 22 ng/mL | 390 ng/mL | 170 L/mol × 10^6 | 240 L/mol × 10^6 | 2.5 L/mol × 10^6 | 2,000 ng/mL | 16 L/mol × 10^6 | 14%
3.9 L/mol × 10^6 | 100% | CN(C)S(=O)(=O)N[C@H](Cc1ccccc1)C(=O)N1CCC[C@H]1C(=O)N[C@H](C=O)CCCNC(=N)N.Cl [Example 56, N-(dimethylaminosulfonyl)-D-phenylalanyl-L-Prolinyl-L-Arginine Aldehyde Hydrochloride] | 46 ng/mL | 360 ng/mL | 300 L/mol × 10^6 | 160 L/mol × 10^6 | – | 480 ng/mL | 21 L/mol × 10^6 | 26%
– | – | CN[C@@H](C(=O)N1CCC[C@H]1C(=O)N[C@@H](CCCNC(=N)N)C(O)S(=O)(=O)[O-])c1ccccc1.O=S(=O)(O)O.[Na+] (stereo partly drawn) [Example 79, N-methyl-D-phenylglycinyl-L-prolinyl-NH-CH[(CH2)3 NH-C(NH)-NH2]-C(OH)SO3 Na.H2 SO4] | – | – | 239 L/mol × 10^6 | 84 L/mol × 10^6 | 0.01 L/mol × 10^6 | – | 1.8 L/mol × 10^6 | 21%
– | – | N=C(N)NCCC[C@H](NC(=O)[C@@H]1CCCN1C(=O)C1CC2CCCCC2CN1)C(O)S(=O)(=O)[O-].O=S(=O)(O)O.[Na+] (stereo partly drawn) [Example 80, D-1,2,3,4,4a,6,7,8,8a-Perhydroisoquinolin-3-yl carbonyl-L-prolinyl-L-arginine aldehyde bisulfite sulfate] | – | – | 62 L/mol × 10^6 | 137 L/mol × 10^6 | 0.01 L/mol × 10^6 | – | 2.7 L/mol × 10^6 | 57%
– | – | N-methyl-D-Phg-Pro-Arg-H.H2 SO4 [79 (Step A)] | – | – | 236 L/mol × 10^6 | 87 L/mol × 10^6 | 0.01 L/mol × 10^6 | – | 1.3 L/mol × 10^6 | 18%
– | – | Cl.Cl.N=C(N)NCCC[C@@H](C=O)NC(=O)[C@@H]1CCCN1C(=O)[C@H]1CSCN1 [Example 4, D-Thiazolidinyl-4-Carbonyl-L-Prolinyl-L-Arginine Aldehyde Dihydrochloride] (H-[dThz]-Pro-Arg-aldehyde) | – | – | 5 L/mol × 10^6 | – | – | – | – | 16%

Compound | Kass Xa (factor Xa) | inhibition at 13 µg/mL ([3]; at 13 μg/mL, read-out: inhib. of t-PA) | 2 × Clotting time TT (human plasma [1]) | 2 × Clotting time APTT (human plasma [2]) | Kass Human Thrombin (human thrombin) | Kass Trypsin (Bovine trypsin) | Kass t-PA [3] | 2 × Clotting time PT (human plasma [4]) | Kass Plasmin (Human plasmin) | Percent Relative Activity (Index of Bioavailability) [5]
CCS(=O)(=O)N[C@H](CC1CCCCC1)C(=O)N1CCC[C@H]1C(=O)N[C@H](C=O)CCCNC(=N)N.Cl [Example 65, N-(ethylsulfonyl)-D-cyclohexylalanyl-L-Prolinyl-L-Arginine Aldehyde Hydrochloride] | 20 L/mol × 10^6 | – | 25 ng/mL | 260 ng/mL | 550 L/mol × 10^6 | 200 L/mol × 10^6 | 0.73 L/mol × 10^6 | 730 ng/mL | 45 L/mol × 10^6 | 19%
